Measurements as given in patent US10662150B2, “Sulfonic acid salt composition and use thereof for color stabilization” (L. BRÜGGEMANN GMBH & CO. KG, priority 2016, dated 2020).

Assay: Aqueous solubility according to OECD 105

Row | Compound | Solubility in water at 23° C. [%]
1 | 2-hydroxy-2-sulfonatoacetic acid disodium salt | 7
2 | O=C([O-])C(O)S(=O)(=O)[O-].[Zn+2] (centres unmarked) [Example 1, Zinc-Salt of 2-Hydroxy-2-Sulfonatoacetic Acid] | 39
